# Measured values as given in PMC9982066, “Inhibition of Ehrlichia chaffeensis infection by cell-permeable macrocyclic peptides that bind type IV secretion effector Etf-1” (PNAS Nexus, 2023).
# Starred links: 1 amine or outer side, 2 acyl side, 3 side chain; linkers in the order of their positions; H or OH if unused. Positions of bridges follow the written chain, without caps; N, C: chain ends. Non-standard residues stand in square brackets, D forms with d. Residues, ends and D or L forms follow the SMILES beside them. Trimesoyl = O=C(c1cc(C(=O)[*:2])cc(C(=O)[*:3])c1)[*:1]; d2Nal = N[C@H](Cc1ccc2ccccc2c1)C(=O)O; Dap = NC[C@H](N)C(=O)O
# Experiments:
# [1] = serum stability assay (UPLC); format: in vitro ADME; settings: 25% (v/v) in DPBS; 25% human serum, 37°C, after 22 h; read-out: degradation
# Description: In comparison, the linear peptide Tat (cell-permeable peptide of HIV) was completely degraded within the first 120 min of incubation (Fig. 4B).
# Human serum was diluted to 25% (v/v) in sterile DPBS and equilibrated at 37°C for 15 min. Peptides were added to the diluted serum to a final concentration of 20 μM and incubated at 37°C with gentle mixing. At designated time points, 30 μL aliquots were withdrawn and mixed with 30 μL of 15% trichloroacetic acid in MeOH (w/v) and 30 μL of MeCN and stored at 4°C overnight to completely precipitate the serum proteins. Next, each aliquot was centrifuged (15,000g, 5 min, 4°C) and 14 μL of the supernatant was injected in an UPLC equipped with an analytical Waters Acquity UPLC BEH C18 column (1.7 μm, 2.1 mm I.D., 100 mm length) and an inline UV-Vis detector and a single quadrupole mass detector. The column was eluted with a linear gradient of 20–50% MeCN in ddH2O containing 0.1% TFA. A UV/Vis detector at 214 nm and the mass spec quantifying the ion counts corresponding to the [M + 3H]^3+ ion of the analytes were used to analyze the samples. The area under the peak of interest was obtained by integration, normalized to that of the peptide at t = 0, and plotted as a function of the incubation time to determine the serum half-life of the peptide.
# Etf-1 = Etf-1 (Ehrlichia chaffeensis, UniProt Q2GG12); assay: immunofluorescence of native Etf-1 localization in E. chaffeensis-infected RF/6A cells; format: cell-based; settings: 2 days
# Description: Fig. 7. […] RF/6A cells were seeded onto a coverglass in a 12-well plate for 1 h, and infected with E. chaffeensis (Ech) at ∼30 MOI. […] Cells were fixed in 4% PFA and labeled with rabbit anti-Etf-1 IgG and AF488-conjugated goat anti-rabbit secondary antibody in PGS for 1 h each at RT. DAPI was used to label both host-cell nuclei and Ehrlichia DNAs (pseudocolored in green), and E. chaffeensis organisms were shown as green-colored, round to pleomorphic cocci (arrowhead in panel B) that further clustered as spherical morulae. Thin arrows, E. chaffeensis-containing inclusion; open arrows, filamentous-shaped mitochondria. DeltaVision microscope. […] (D) Percentage of E. chaffeensis inclusions colocalized with Etf-1 were quantified by counting ∼20 cells per group from three independent experiments.
# For mitochondria localization analysis, RF/6A cells were seeded onto a cover glass in a 12-well plate for 3 h, then infected with E. chaffeensis at ∼30 MOI. […] Host-cell and Ehrlichial DNAs were stained with 300 nM DAPI, and fluorescence with differential interference contrast images were observed and captured with a DeltaVision deconvolution microscope (Applied Precision, Issaquah, WA, USA). Percentages of Etf-1 protein colocalization with macrocyclic peptides or E. chaffeensis inclusions were quantified by counting 10–20 cells per group from three independent experiments.
# E. chaffeensis = E. chaffeensis infection of THP-1 cells, qPCR of 16S rRNA gene normalized to human actin; format: cell-based, Ehrlichia chaffeensis
# Etf-1-GFP = assay: mitochondrial localization of ectopically expressed Etf-1-GFP in RF/6A cells; format: cell-based, Ehrlichia chaffeensis; settings: 10 μM, 2 days
# Description: For mitochondria localization analysis, RF/6A cells were seeded onto a cover glass in a 12-well plate for 3 h, then infected with E. chaffeensis at ∼30 MOI. Alternatively, cells were transfected with Etf-1-GFP or Etf-1-DsRed plasmids using Fugene HD (Promega) or by electroporation at 100 V and 1,000 µF using the Gene Pulser Xcell System (BioRad) according to the manufacturers’ instructions ([16]). […] To examine the roles of macrocyclic peptides on Etf-1 localization on E. chaffeensis inclusions, infected RF/6A cells were treated with 10 μM peptides at 3 h pi for 2 days. At 2 days pi or pt, cells were washed 3 times with PBS, then fixed in 4% PFA for 20 min. Native Etf-1 and mitochondria marker cytochrome C proteins were labeled with rabbit anti-Etf-1 IgG and mouse anti-cytochrome C, then with AF488-conjugated goat anti-rabbit and anti-mouse secondary antibodies in PGS (PBS with 0.1% gelatin and 0.1% saponin) for 1 h each at RT. Host-cell and Ehrlichial DNAs were stained with 300 nM DAPI, and fluorescence with differential interference contrast images were observed and captured with a DeltaVision deconvolution microscope (Applied Precision, Issaquah, WA, USA). Percentages of Etf-1 protein colocalization with macrocyclic peptides or E. chaffeensis inclusions were quantified by counting 10–20 cells per group from three independent experiments.
# Sequence of Etf-1 (Q2GG12 entry or part of it): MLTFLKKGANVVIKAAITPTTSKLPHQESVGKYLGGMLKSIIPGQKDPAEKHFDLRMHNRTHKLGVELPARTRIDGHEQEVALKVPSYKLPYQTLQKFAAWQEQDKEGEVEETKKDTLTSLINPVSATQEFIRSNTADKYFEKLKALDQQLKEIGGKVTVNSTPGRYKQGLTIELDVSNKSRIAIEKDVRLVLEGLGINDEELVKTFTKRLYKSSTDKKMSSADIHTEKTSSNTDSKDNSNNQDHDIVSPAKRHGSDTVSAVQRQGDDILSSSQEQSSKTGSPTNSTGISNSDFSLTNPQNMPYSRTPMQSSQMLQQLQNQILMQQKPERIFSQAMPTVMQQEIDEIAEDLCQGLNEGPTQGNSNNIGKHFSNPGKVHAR
compound,measurement,setting,value
"CC(C)C[C@H]1NC(=O)[C@H](CO)NC(=O)[C@H]2CCCN2C(=O)[C@H](CCC(N)=O)NC(=O)[C@H](Cc2c[nH]cn2)NC(=O)[C@H](Cc2ccc(O)cc2)NC(=O)c2cc3cc(c2)C(=O)NC[C@H](NC1=O)C(=O)N[C@@H](Cc1ccccc1)C(=O)N[C@H](Cc1ccc2ccccc2c1)C(=O)N[C@H](CCCNC(=N)N)C(=O)N[C@@H](CCCNC(=N)N)C(=O)N[C@H](CCCNC(=N)N)C(=O)N[C@@H](CCCNC(=N)N)C(=O)N[C@H](C(N)=O)CNC3=O [Peptide B7, TMA-Tyr-His-Gln-pro-Ser-leu-Dap-Phe-nal-arg-Arg-arg-Arg-Dap] (YHQ[dP]S[dL][Dap]F[d2Nal][dR]R[dR]R[Dap]-NH2; linker N-7-14 via Trimesoyl)","metabolised at 22 h, 20 µM",[1],< 20%
same,localization of Etf-1 to E. chaffeensis inclusions,Etf-1; 10 μM from 3 h pi,significantly inhibited the localization
same,effect on mitochondrial localization of native Etf-1,Etf-1; 10 μM,did not affect
same,inhibition of E. chaffeensis infection,"E. chaffeensis; 10 μM, 2 days, vs DMSO control",significantly inhibited
same,dose dependence of inhibition of E. chaffeensis infection,"E. chaffeensis; 1, 5, and 10 μM",dose-dependent manner
same,effect on mitochondrial localization of Etf-1-GFP,Etf-1-GFP,neither peptide B7 nor C17 affected mitochondrial localization
